This is an account of results in US9597382B2, “KNTC2 peptides and vaccines containing the same” (ONCOTHERAPY SCIENCE, INC., priority 2013, dated 2017).

Assay [1] concerns peptide-pulsed C1R-A02 cells. In words: IFN-gamma ELISPOT assay on CTLs induced with KNTC2 peptides. In kind it is cell-based, human. The note with it: CTLs induced with peptide-pulsed DCs from HLA-A*0201 positive donor; peptide-pulsed C1R-A02 cells vs control wells. The text has this: Monocyte-derived dendritic cells (DCs) were used as antigen-presenting cells to induce cytotoxic T lymphocyte (CTL) responses against peptides presented on human leukocyte antigen (HLA). DCs were generated in vitro as described elsewhere (Nakahara S et al., Cancer Res 2003 Jul. 15, 63(14): 4112-8). Specifically, peripheral blood mononuclear cells isolated from a normal volunteer (HLA-A*0201 positive) by Ficoll-Paque plus (Pharmacia) solution were separated by adherence to a plastic tissue culture dish (Becton Dickinson) so as to enrich them as the monocyte fraction. The monocyte-enriched population was cultured in the presence of 1000 IU/ml of granulocyte-macrophage colony-stimulating factor (R&D System) and 1000 IU/ml of interleukin (IL)-4 (R&D System) in AIM-V Medium (Invitrogen) containing 2% heat-inactivated autologous serum (AS). After 7 days of culture, the cytokine-induced DCs were pulsed with 20 micro g/ml of each of the synthesized peptides in the presence of 3 micro g/ml of beta 2-microglobulin for 3 hr at 37 degrees C. in AIM-V Medium. The generated cells appeared to express DC-associated molecules, such as CD80, CD83, CD86 and HLA class II, on their cell surfaces (data not shown). These peptide-pulsed DCs were then inactivated by X ray-irradiated (20 Gy) and mixed at a 1:20 ratio with autologous CD8+ T cells, obtained by positive selection with CD8 Positive Isolation Kit (Dynal). These cultures were set up in 48-well plates (Corning); each well contained 1.5×10^4 peptide-pulsed DCs, 3×10^5 CD8+ T cells and 10 ng/ml of IL-7 (R&D System) in 0.5 ml of AIM-V/2% AS medium. Three days later, these cultures were supplemented with IL-2 (CHIRON) to a final concentration of 20 IU/ml. On day 7 and 14, the T cells were further stimulated with the autologous peptide-pulsed DCs. The DCs were prepared each time by the same way described above. CTL was tested against peptide-pulsed C1R-A02 cells after the 3rd round of peptide stimulation on day 21 (Tanaka H et al., Br J Cancer 2001 Jan. 5, 84(1): 94-9; Umano Y et al., Br J Cancer 2001 Apr. 20, 84(8): 1052-7; Uchida N et al., Clin Cancer Res 2004 Dec. 15, 10(24): 8577-86; Suda T et al., Cancer Sci 2006 May, 97(5): 411-9; Watanabe T et al., Cancer Sci 2005 August, 96(8): 498-506).
(§1) To examine specific CTL activity, IFN-gamma ELISPOT assay and IFN-gamma ELISA were performed. Peptide-pulsed C1R-A02 cells (1×10^4/well) were prepared as stimulator cells. Cultured cells in 48-well plate, CTL lines and CTL clones were used as responder cells. IFN-gamma ELISPOT assay and IFN-gamma ELISA were performed under the manufacturer's procedure.

In assay [2] the test system is C1R-A02 cells pulsed with corresponding peptide. In words: IFN-gamma ELISA of CTL clones established by limiting dilution. In kind it is cell-based, human. On the procedure:
The dilutions were made to have 0.3, 1, and 3 CTLs/well in 96 round-bottomed micro titer plate (Nalge Nunc International). CTLs were cultured with 1×10^4 cells/well of 2 kinds of human B-lymphoblastoid cell lines, 30 ng/ml of anti-CD3 antibody, and 125 IU/ml of IL-2 in a total of 150 micro 1/well of AIM-V Medium containing 5% AS. 50 micro 1/well of IL-2 were added to the medium 10 days later to reach a final concentration of 125 IU/ml IL-2. CTL activity was tested on the 14th day, and CTL clones were expanded using the same method as described above (Uchida N et al., Clin Cancer Res 2004 Dec. 15, 10(24): 8577-86; Suda T et al., Cancer Sci 2006 May, 97(5): 411-9; Watanabe T et al., Cancer Sci 2005 August, 96(8): 498-506).
as §1
(An ELISA detects its analyte on a solid surface through an enzyme-linked reagent.)

The test system of assay [3] is peptide-pulsed C1R-A02 cells. In words: IFN-gamma ELISA of CTL lines. The assay is classed as cell-based, human. The note with it: target cells pulsed with corresponding peptide vs without peptide pulse. On the procedure:
CTLs were expanded in culture using the method similar to the one described by Riddell et al. (Walter E A et al., N Engl J Med 1995 Oct. 19, 333(16): 1038-44; Riddell S R et al., Nat Med 1996 Feb. 2(2): 216-23). A total of 5×10^4 CTLs were suspended in 25 ml of AIM-V/5% AS medium with 2 kinds of human B-lymphoblastoid cell lines, inactivated by Mitomycin C, in the presence of 40 ng/ml of anti-CD3 monoclonal antibody (Pharmingen). One day after initiating the cultures, 120 IU/ml of IL-2 were added to the cultures. The cultures were fed with fresh AIM-V/5% AS medium containing 30 IU/ml of IL-2 on days 5, 8 and 11 (Tanaka H et al., Br J Cancer 2001 Jan. 5, 84(1): 94-9; Umano Y et al., Br J Cancer 2001 Apr. 20, 84(8): 1052-7; Uchida N et al., Clin Cancer Res 2004 Dec. 15, 10(24): 8577-86; Suda T et al., Cancer Sci 2006 May, 97(5): 411-9; Watanabe T et al., Cancer Sci 2005 August, 96(8): 498-506).
as §1

In assay [4] the test system is COS7 cells transfected with KNTC2 and HLA-A*0201. In words: Specific CTL activity against target cells expressing KNTC2 and HLA-A*0201. In kind it is cell-based, African green monkey. The text has this: The cDNA encoding an open reading frame of target genes or HLA-A*0201 was amplified by PCR. The PCR-amplified product was cloned into expression vector. The plasmids were transfected into COS7, which is the target genes and HLA-A*0201-null cell line, using lipofectamine 2000 (Invitrogen) according to the manufacturer's procedure. After 2 days from transfection, the transfected cells were harvested with versene (Invitrogen) and used as the stimulator cells (5×10^4 cells/well) for CTL activity assay.
The established CTL line raised against KNTC2-A02-9-184 (SEQ ID NO: 7) peptide was examined for the ability to recognize target cells that express KNTC2 and HLA-A*0201 molecule. COS7 cells transfected with both the full length of KNTC2 and HLA-A*0201 gene (a specific model for the target cells that express KNTC2 and HLA-A*0201 gene) were prepared as a stimulator cells, and COS7 cells transfected with either full length of KNTC2 or HLA-A*0201 were used as the controls.

“AILDQKLNGL (a peptide derived from KNTC2) [SEQ ID NO: 53, 10mer peptide derived from KNTC2, start position 322]”: in assay [1], the “Peptide specific CTL activity (IFN-gamma production) by IFN-gamma ELISPOT” value (shortened to “Peptide specific CTL activity”) was “potent IFN-gamma production”.

With “ALVWLIDCI (a peptide derived from KNTC2) [SEQ ID NO: 7, 9mer peptide derived from KNTC2, start position 184]”, in assay [2], the “IFN-gamma production of CTL clones by IFN-gamma ELISA” value (from here on “IFN-gamma production of CTL clones”) is recorded as “Potent IFN-gamma production”. For the same sequence, the “Peptide specific CTL activity” value in assay [1] is given as “potent IFN-gamma production”. Besides, in assay [3], the “IFN-gamma production of CTL lines by IFN-gamma ELISA” value (“IFN-gamma production of CTL lines” for short) is reported as “potent IFN-gamma production”. In addition, in assay [4] (COS7 transfected with both full length KNTC2 and HLA-A*0201), the “CTL activity of CTL line against COS7 cells expressing both KNTC2 and HLA-A*0201” value is reported as “potent CTL activity”. Moreover, the “CTL activity of CTL line against control COS7 cells” value in assay [4] (COS7 transfected with either full length KNTC2 or HLA-A*0201) was “no significant specific CTL activity was detected”.

For “FLYGFLCPS (a peptide derived from KNTC2) [SEQ ID NO: 2, 9mer peptide derived from KNTC2, start position 131]”, in assay [2], the “IFN-gamma production of CTL clones” value was “Potent IFN-gamma production”. The “Peptide specific CTL activity” value in assay [1] is “potent IFN-gamma production”. Further, in assay [3], the “IFN-gamma production of CTL lines” value is “potent IFN-gamma production”.

For the sequence “GLNEEIARV (a peptide derived from KNTC2) [SEQ ID NO: 1, 9mer peptide derived from KNTC2, start position 330]”, in assay [1], the “Peptide specific CTL activity” value is “no specific IFN-gamma production”.

Turning to “IVAALVWLI (a peptide derived from KNTC2) [SEQ ID NO: 3, 9mer peptide derived from KNTC2, start position 181]”, the “IFN-gamma production of CTL clones” value in assay [2] is recorded as “Potent IFN-gamma production”. Further, the “Peptide specific CTL activity” value in assay [1] is reported as “potent IFN-gamma production”. Further, the “IFN-gamma production of CTL lines” value in assay [3] is on record as “potent IFN-gamma production”.

As for “KIFTFLYGF (a peptide derived from KNTC2) [SEQ ID NO: 17, 9mer peptide derived from KNTC2, start position 127]”, the “Peptide specific CTL activity” value in assay [1] was “potent IFN-gamma production”.

“KIFTFLYGFL (a peptide derived from KNTC2) [SEQ ID NO: 41, 10mer peptide derived from KNTC2, start position 127]”: the “Peptide specific CTL activity” value in assay [1] is recorded as “potent IFN-gamma production”.

With “LVWLIDCIKI (a peptide derived from KNTC2) [SEQ ID NO: 68, 10mer peptide derived from KNTC2, start position 185]”, the “Peptide specific CTL activity” value in assay [1] is reported as “potent IFN-gamma production”.
